# Read-outs that look alike come from different tables or passages of the source.
# Columns and labels:
# [1] = test system: blood cells from uveitis patients; settings: previously found (Wildner and Thurau 1994; Thurau et al. 1997); cited from earlier work
# [2] = test system: peripheral blood mononuclear cells (PBMCs) from AMD patients; settings: for immunostimulatory activity on PBMCs: peptide 20 μg/ml
# Protocol: (§1) Accordingly, peripheral blood mononuclear cells of AMD patients were tested to determine whether they would manifest the same type of responses to various synthetic peptides as blood cells from uveitis patients did in an earlier study. See deSmet et al. (2001) Investigative Ophthalmology & Visual Science 42(13):3233-38.
# (§2) The cell preparation and assay procedures used in these experiments were essentially as described in DeSmet et al. 2001. In brief, mononuclear lymphocytes were separated on isolymph gradient (Gallard-Schlesinger, Carle Place, N.Y.) from heparinized blood shortly after the sample was obtained. Cells were resuspended in RMPI 1640 with HEPES (Gibco, Grand Island, N.Y.), supplemented with glutamine (2 mM), Penicillin (100 U/ml), streptomycin (100 μg/ml), and 10% commercial heat-inactivated human AB serum (Biocell Laboratories, Carson, Calif.). These cells were immediately placed in culture at a density of 5×10^5 cells/well in the presence of a test peptide at a concentration of 20 μg/ml (or no peptide control), in flat-bottomed, 96-well plates (Costar, Cambridge, Mass.). All assays were plated in triplicate. Peptides were tested simultaneously. For control of immune reactivity, purified protein derivative (PPD; Parke-Davis, Morris Plains, N.J.) and purified phytohemagglutinin (PHA; Murex Diagnostics, Dartford, UK) were also tested. For the last 12 hours before harvesting at day 5, each well was pulsed with [3H]thymidine (2 Ci/mmol, 0.5 μCi per 10 μl/well; New England Nuclear, Boston, Mass.).
# [3] = test system: PBMCs from control subjects without AMD
# Protocol: as §1, §2
# [4] = AMD patients with large drusen (late stage)
# [5] = patients with wet AMD (advanced AMD with CNV), day 5
# [6] = early stage AMD patients with small drusen
Substance,immunostimulatory in uveitis patients [1],"immunostimulatory activity on PBMCs [2, 4]","immunostimulatory activity on PBMCs [2, 5]","immunostimulatory activity on PBMCs [2, 6]",further results
"ALNED LSSWT AADT [Peptide B27PD, reference compound]",immunostimulatory,varying levels of responses,elicit immunoreactive responses,,
DTNLA SSTII KEGID [Peptide 31],,higher average reactivity than Peptide 23,,most reactive,
"FLGEL TSSEV ATEV [PDS-Ag, reference compound]",immunostimulatory,varying levels of responses,elicit immunoreactive responses,,
GEPIPVTVDVTNNTEKTVKK,,,,,"response from responder T-cells ([2]; AMD patients, FIG. 1): elicits a response; response from responder T-cells ([3]; healthy individuals): does not elicit a response"
LPLLA NNRER RGIAL [Peptide 29],,higher average reactivity than Peptide 23,,most reactive,
VTVDVTNNTEKTVKK [Peptide 23],,,,,"frequency of induced immunostimulatory response ([2]; AMD patients with large drusen, FIG. 3, comparison of the three agents): more frequently induced an immunostimulatory response than PDS-Ag or B27PD; immunostimulatory activity on PBMCs ([3]; control subjects without AMD, peptide 20 μg/ml): little if any stimulation"
